Where “and” joins values, the source holds several entries; their conditions need not be identical. Identical values can stand only once. Inconclusive results and toxic doses are left out.

The values that follow come from PubChem BioAssay AID328 (DTP/NCI, 2004).

In the assay the test system is BDF1 mice, P388 leukemia ip, median survival T/C. Nature of the assay: NCI In Vivo Anticancer Drug Screen. Data for tumor model P388 Leukemia (intraperitoneal) in B6D2F1 (BDF1) mice. To be noted: endpoint: median survival time, higher = longer survival. In a few lines: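 Vehicle-dosed animals serve as the reference; survival of compound-dosed, tumour-implanted mice is divided by it.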

Setting [1] is: dose: 100.0 mg/kg/injection, schedule: Q01DX009 (ip), vehicle: saline with Tween-80.
The mark [2] stands for this setting: dose: 100.0 mg/kg/injection, schedule: Q04DX003 (ip), vehicle: saline with Tween-80.
Where [3] appears, read: dose: 200.0 mg/kg/injection, schedule: Q01DX009 (ip), vehicle: saline with Tween-80.
The mark [4] stands for this setting: dose: 200.0 mg/kg/injection, schedule: Q04DX003 (ip), vehicle: saline with Tween-80.
Setting [5] is: dose: 400.0 mg/kg/injection, schedule: Q01DX009 (ip), vehicle: saline with Tween-80.
[6] abbreviates: dose: 400.0 mg/kg/injection, schedule: Q04DX003 (ip), vehicle: saline with Tween-80.
Setting [7] is: dose: 25.0 mg/kg/injection, schedule: Q01DX009 (ip), vehicle: saline with Tween-80.
Setting [8] is: dose: 25.0 mg/kg/injection, schedule: Q04DX003 (ip), vehicle: saline with Tween-80.
The mark [9] stands for this setting: dose: 50.0 mg/kg/injection, schedule: Q04DX003 (ip), vehicle: saline with Tween-80.
The mark [10] stands for this setting: dose: 50.0 mg/kg/injection, schedule: Q01DX009 (ip), vehicle: saline with Tween-80.

Regarding `COc1cc2c(cc1OC)-c1c(C)c3ccc(OC)c(NCCN)c3c[n+]1CC2`, the T/C (dose: 3.12 mg/kg/injection, schedule: Q01DX005 (ip), vehicle: water) was 100 % of control; the T/C (dose: 3.13 mg/kg/injection, schedule: Q04DX003 (ip), vehicle: water) was 101 % of control; the T/C (dose: 6.25 mg/kg/injection, schedule: Q01DX005 (ip), vehicle: water) is 97 % of control; the T/C (dose: 6.25 mg/kg/injection, schedule: Q04DX003 (ip), vehicle: water) is 108 % of control; the T/C (dose: 12.5 mg/kg/injection, schedule: Q01DX005 (ip), vehicle: water) is 100 % of control; the T/C (dose: 12.5 mg/kg/injection, schedule: Q04DX003 (ip), vehicle: water) is 110 % of control. The T/C by setting is: (dose: 25.0 mg/kg/injection, schedule: Q01DX005 (ip), vehicle: water) 98 % of control; (dose: 25.0 mg/kg/injection, schedule: Q04DX003 (ip), vehicle: water) 98 % of control and 120 % of control.

As to `C=C(Cl)CSCCS`, the T/C is 104 % of control (dose: 25.0 mg/kg/injection, schedule: Q01DX009 (ip), vehicle: acetone) and 104 % of control (dose: 50.0 mg/kg/injection, schedule: Q01DX009 (ip), vehicle: acetone).

In the case of `O=c1[nH]cnc2n[nH]nc12`, the T/C reads like this: under setting [1], 108 % of control; under setting [2], 104 % of control; under setting [3], 124 % of control; under setting [4], 113 % of control; under setting [5], 100 % of control; under setting [6], 104 % of control.

As to `C=CCOP1(=O)OCC2OC(n3cnc4c(N)ncnc43)C(O)C2O1` (stereo not given), the T/C was 88 % of control (dose: 100.0 mg/kg/injection, schedule: Q01DX009 (ip), vehicle: saline); 100 % of control (dose: 200.0 mg/kg/injection, schedule: Q01DX009 (ip), vehicle: saline); 88 % of control (dose: 400.0 mg/kg/injection, schedule: Q01DX009 (ip), vehicle: saline).

As for `Nc1nc2ncc(CNc3ccc(C(=O)NC(CCC(=O)O)C(=O)O)cn3)nc2c(=O)[nH]1` (stereo not given), the T/C is, setting by setting: (dose: 37.5 mg/kg/injection, schedule: Q01DX009 (ip), vehicle: saline with Tween-80) 92 % of control; (dose: 62.5 mg/kg/injection, schedule: Q01DX009 (ip), vehicle: saline with Tween-80) 92 % of control; (dose: 75.0 mg/kg/injection, schedule: Q01DX009 (ip), vehicle: saline with Tween-80) 107 % of control.

In the case of `CN(N=O)P(=O)(Nc1ccccc1)Nc1ccccc1`, the T/C runs as follows: (dose: 25.0 mg/kg/injection, schedule: Q04DX003 (ip), vehicle: other) 100 % of control; (dose: 50.0 mg/kg/injection, schedule: Q04DX003 (ip), vehicle: other) 100 % of control; (dose: 100.0 mg/kg/injection, schedule: Q04DX003 (ip), vehicle: other) 95 % of control.

With `COc1cc2cc(c1Cl)NC(=O)CC(OC(=O)C(C)N(C)C(=O)C1(C)CC1C)C1(C)OC1C(C)C1CC(O)(NC(=O)O1)C(OC)C=C/C=C(\C)C2` (stereo not given), the T/C runs as follows: (dose: 0.1 micrograms/kg/injection, schedule: Q01DX009 (ip), vehicle: saline + alcohol) 115 % of control; (dose: 0.2 micrograms/kg/injection, schedule: Q01DX009 (ip), vehicle: saline + alcohol) 165 % of control; (dose: 0.4 micrograms/kg/injection, schedule: Q01DX009 (ip), vehicle: saline + alcohol) 165 % of control; (dose: 0.8 micrograms/kg/injection, schedule: Q01DX009 (ip), vehicle: saline + alcohol) 155 % of control; (dose: 1.6 micrograms/kg/injection, schedule: Q01DX009 (ip), vehicle: saline + alcohol) 167 % of control and 175 % of control; (dose: 3.1 micrograms/kg/injection, schedule: Q01DX009 (ip), vehicle: saline + alcohol) 184 % of control and 190 % of control. Also, the T/C (dose: 6.2 micrograms/kg/injection, schedule: Q01DX009 (ip), vehicle: saline + alcohol) is 233 % of control and 300 % of control; the T/C (dose: 12.5 micrograms/kg/injection, schedule: Q01DX009 (ip), vehicle: saline + alcohol) was 184 % of control and 200 % of control; the T/C (dose: 25.0 micrograms/kg/injection, schedule: Q01DX009 (ip), vehicle: saline + alcohol) is 87 % of control and 90 % of control.

`Nc1nc(N)c2ncc(/C=C/c3ccc(Cl)c(Cl)c3)nc2n1`: the T/C was 91 % of control under setting [2], 90 % of control under setting [4] and 108 % of control under setting [6].

Regarding `CCN(CC)N=Nc1ccccc1-c1nc(N)c2ccccc2n1`, the T/C was 157 % of control (dose: 50.0 mg/kg/injection, schedule: Q04DX003 (ip), vehicle: Klucel (hydroxypropylcellulose) (HPC)); 161 % of control (dose: 100.0 mg/kg/injection, schedule: Q04DX003 (ip), vehicle: Klucel (hydroxypropylcellulose) (HPC)); 180 % of control (dose: 200.0 mg/kg/injection, schedule: Q04DX003 (ip), vehicle: Klucel (hydroxypropylcellulose) (HPC)).

As for `CSc1nc([N+](=O)[O-])c2cnccn12`, the T/C is, setting by setting: (dose: 5.0 mg/kg/injection, schedule: Q04DX003 (ip), vehicle: saline with Tween-80) 103 % of control; (dose: 6.25 mg/kg/injection, schedule: Q01DX009 (ip), vehicle: saline with Tween-80) 97 % of control; (dose: 10.0 mg/kg/injection, schedule: Q04DX003 (ip), vehicle: saline with Tween-80) 99 % of control; (dose: 12.5 mg/kg/injection, schedule: Q01DX009 (ip), vehicle: saline with Tween-80) 99 % of control; (dose: 12.5 mg/kg/injection, schedule: Q04DX003 (ip), vehicle: saline with Tween-80) 101 % of control; (dose: 20.0 mg/kg/injection, schedule: Q04DX003 (ip), vehicle: saline with Tween-80) 90 % of control. Also, the T/C by setting is: under setting [7], 96 % of control; under setting [8], 92 % of control; (dose: 40.0 mg/kg/injection, schedule: Q04DX003 (ip), vehicle: saline with Tween-80) 114 % of control; under setting [9], 89 % of control.

Consider `OCc1ccccc1`, for which the T/C by setting is: under setting [1], 95 % of control; under setting [3], 104 % of control; under setting [5], 108 % of control.

On to `CC1=C(C)C(=O)c2c(OC(=O)c3ccccc3)c(Cl)cc(OC(=O)c3ccccc3)c2C1=O`, for which the T/C was 93 % of control under setting [8]; 92 % of control under setting [9]; 89 % of control and 94 % of control under setting [2]; 93 % of control under setting [4]; 109 % of control under setting [6].

As to `Cn1cnc([N+](=O)[O-])c1[Se]c1ncnc2c1ccn2C1OC(CO)C(O)C1O` (stereo not given), the T/C runs as follows: (dose: 6.25 mg/kg/injection, schedule: Q01DX009 (ip), vehicle: saline) 107 % of control; (dose: 12.5 mg/kg/injection, schedule: Q01DX009 (ip), vehicle: saline) 88 % of control; (dose: 25.0 mg/kg/injection, schedule: Q01DX009 (ip), vehicle: saline) 102 % of control; (dose: 100.0 mg/kg/injection, schedule: Q04DX003 (ip), vehicle: saline) 100 % of control; (dose: 200.0 mg/kg/injection, schedule: Q04DX003 (ip), vehicle: saline) 104 % of control.

`O=C(NC(=O)c1c(F)cccc1F)Nc1cccc(C(F)(F)F)c1`: the T/C reads like this: under setting [7], 97 % of control; under setting [10], 99 % of control; under setting [1], 97 % of control.

In the case of `Cc1ccc2c(c1)Oc1ccccc1N=C2`, the T/C runs as follows: under setting [10], 97 % of control; under setting [1], 103 % of control; under setting [3], 97 % of control.

On to `O=C(c1cccs1)c1cccs1`, for which the T/C reads like this: under setting [10], 101 % of control; under setting [1], 108 % of control; under setting [2], 102 % of control; under setting [3], 92 % of control; under setting [4], 90 % of control; under setting [5], 99 % of control. Further, the T/C under setting [6] is 112 % of control.

In the case of `Cc1ccc(Nc2nc(N)nc(N)c2N)cc1Cl`, the T/C (dose: 33.0 mg/kg/injection, schedule: Q01DX009 (ip), vehicle: saline with Tween-80) is 120 % of control.

For the compound `C=C(C)C(=O)Oc1ccc([N+](=O)[O-])cc1`, the T/C is 96 % of control under setting [10], 113 % of control under setting [1] and 98 % of control under setting [3].
